These results are taken from patent US20230374038A1, “MODULATORS OF CYSTIC FIBROSIS TRANSMEMBRANE CONDUCTANCE REGULATOR” (VERTEX PHARMACEUTICALS INCORPORATED, priority 2020, published 2023).

T1 sequence (P13569 with tags, fused parts or gaps DEL508-508): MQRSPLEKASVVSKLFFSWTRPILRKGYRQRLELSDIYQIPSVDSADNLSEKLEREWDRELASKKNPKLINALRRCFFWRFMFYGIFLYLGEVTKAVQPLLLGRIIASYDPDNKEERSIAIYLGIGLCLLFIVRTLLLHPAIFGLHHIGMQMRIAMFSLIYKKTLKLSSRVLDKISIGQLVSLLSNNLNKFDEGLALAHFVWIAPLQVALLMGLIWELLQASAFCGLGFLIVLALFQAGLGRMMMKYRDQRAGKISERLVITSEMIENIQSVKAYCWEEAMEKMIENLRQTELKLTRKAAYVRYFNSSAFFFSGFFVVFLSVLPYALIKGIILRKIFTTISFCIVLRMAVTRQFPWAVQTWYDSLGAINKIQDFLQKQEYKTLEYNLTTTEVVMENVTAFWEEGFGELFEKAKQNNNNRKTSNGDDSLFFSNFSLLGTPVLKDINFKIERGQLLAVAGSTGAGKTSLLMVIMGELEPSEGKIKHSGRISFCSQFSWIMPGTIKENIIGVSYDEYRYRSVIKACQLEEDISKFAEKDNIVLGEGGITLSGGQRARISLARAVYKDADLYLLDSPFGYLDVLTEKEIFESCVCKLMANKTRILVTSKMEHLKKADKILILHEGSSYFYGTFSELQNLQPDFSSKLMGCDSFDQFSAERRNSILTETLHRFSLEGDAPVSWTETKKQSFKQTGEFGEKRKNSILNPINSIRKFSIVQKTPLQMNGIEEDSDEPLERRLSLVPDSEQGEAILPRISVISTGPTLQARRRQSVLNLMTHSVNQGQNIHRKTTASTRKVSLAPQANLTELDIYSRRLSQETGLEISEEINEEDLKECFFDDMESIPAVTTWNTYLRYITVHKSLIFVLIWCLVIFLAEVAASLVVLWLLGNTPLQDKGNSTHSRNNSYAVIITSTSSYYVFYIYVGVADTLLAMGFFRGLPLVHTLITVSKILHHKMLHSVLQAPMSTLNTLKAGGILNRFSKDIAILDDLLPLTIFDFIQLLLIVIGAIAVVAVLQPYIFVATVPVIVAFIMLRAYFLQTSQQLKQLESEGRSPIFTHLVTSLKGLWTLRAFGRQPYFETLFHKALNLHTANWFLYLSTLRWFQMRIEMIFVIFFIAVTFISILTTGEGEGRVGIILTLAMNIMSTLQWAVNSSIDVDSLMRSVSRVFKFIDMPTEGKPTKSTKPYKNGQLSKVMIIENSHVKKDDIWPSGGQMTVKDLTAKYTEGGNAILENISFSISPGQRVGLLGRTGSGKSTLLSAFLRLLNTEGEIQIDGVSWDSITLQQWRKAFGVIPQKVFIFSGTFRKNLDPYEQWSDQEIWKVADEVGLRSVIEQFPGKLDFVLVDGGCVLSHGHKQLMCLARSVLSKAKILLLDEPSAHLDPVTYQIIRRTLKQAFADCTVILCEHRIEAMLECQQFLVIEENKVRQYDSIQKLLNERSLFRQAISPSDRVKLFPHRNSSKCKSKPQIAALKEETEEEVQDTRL

The first experiment has as its target T1, CFTR (Homo sapiens, UniProt P13569, DEL508-508).
T1 construct: endogenous in cells; host or cells: primary human bronchial epithelial cells, F508del/MF genotype
Description: HBE Assay: Ussing chamber assay of CFTR-mediated short-circuit currents in F508del/MF-HBE cells with 1 μM Ivacaftor. The format is cell-based. As to conditions: range of concentrations with 1 μM Ivacaftor, 18-24 hours, 20% human serum. The procedure:
Ussing chamber experiments were performed using human bronchial epithelial (HBE) cells derived from CF subjects heterozygous for F508del and a minimal function CFTR mutation (F508del/MF-HBE) and cultured as previously described (Neuberger T, Burton B, Clark H, Van Goor F Methods Mol Biol 2011:741:39-54). After four days the apical media was removed, and the cells were grown at an air liquid interface for >14 days prior to use.
(§1) To isolate the CFTR-mediated short-circuit (ISC) current, F508del/MF-HBE grown on Costar® Snapwell™ cell culture inserts were mounted in an Ussing chamber and the transepithelial ISC was measured under voltage-clamp recording conditions (Vhold=0 mV) at 37° C. The basolateral solution contained (in mM) 145 NaCl, 0.83 K2HIPO4, 3.3 KH2PO4, 1.2 MgCl2, 1.2 CaCl2), 10 Glucose, 10 HEPES (pH adjusted to 7.4 with NaOH) and the apical solution contained (in mM) 145 NaGluconate, 1.2 MgCl2, 1.2 CaCl2), 10 glucose, 10 HEPES (pH adjusted to 7.4 with NaOH) and 30 μM amiloride to block the epithelial sodium channel. Forskolin (20 μM) was added to the apical surface to activate CFTR, followed by apical addition of a CFTR inhibitor cocktail consisting of BPO, GlyH-101, and CFTR inhibitor 172 (each at 20 μM final assay concentration) to specifically isolate CFTR currents. The CFTR-mediated ISC (μA/cm^2) for each condition was determined from the peak forskolin response to the steady-state current following inhibition.
The activity of the CFTR corrector compounds on the CFTR-mediated ISC was determined in Ussing chamber studies as described above. The F508del/MF-HBE cell cultures were either incubated with the corrector compounds at a range of concentrations in combination with 1 μM Ivacaftor or were incubated with the corrector compounds at a single fixed concentration of 10 μM in combination with 1 μM Ivacaftor for 18-24 hours at 37° C. and in the presence of 20% human serum. The concentration of corrector compounds with 1 μM Ivacaftor during the 18-24 hours incubations was kept constant throughout the Ussing chamber measurement of the CFTR-mediated ISC to ensure compounds were present throughout the entire experiment.
as §1, with “K2HPO4,” for “K2HIPO4,”
Broadly, the EC50 is the concentration needed to bring the measured effect to its halfway point. Regarding `Cc1cccc(C)c1-c1nc2nc(c1F)OC[C@@H](CC(C)(C)C)N(Cc1ncc(N3CCC(C)(C)C3)cn1)C(=O)c1cccc(c1)S(=O)(=O)N2` [Compound 341], the EC50 was under 1000 nM.

The experiment is the same for the next values; noted with them: single fixed concentration of 10 μM, with 1 μM Ivacaftor, 20% human serum.
For the molecule `Cc1cccc(CC2CCCC2)c1-c1nc2nc(c1C)OC[C@@H](CC(C)(C)C)N(Cc1cccc(N3CCC[C@H]3C)n1)C(=O)c1cccc(c1)S(=O)(=O)N2` (atropisomer, axis not shown) [Compound 269], the “HBE Activity at 10 μM” value is given as “+++ (+++ is >600%)”.

With `Cc1cccc(C(C)C)c1-c1nc2nc(c1C)OC[C@@H](CC(C)(C)C)N(Cc1cnc(C3CCOCC3)cn1)C(=O)c1cccc(c1)S(=O)(=O)N2` (atropisomer, axis not shown) [Compound 318], the “HBE Activity at 10 μM” value is reported as “+++ (+++ is >600%)”.

The same experiment, now with this note: with 1 μM Ivacaftor, 18-24 hours, 20% human serum.
Turning to `Cc1cccc(CC(C)C)c1-c1nc2nc(c1C)OC[C@@H](CC(C)(C)C)N(Cc1cccc(N(C)C(C)C)n1)C(=O)c1cccc(c1)S(=O)(=O)N2` (atropisomer, axis not shown) [Compound 235], the EC50 was under 1000 nM and the “HBE Max Activity” value is given as “+++ (+++ is >600%)”.

With `Cc1cccc(CC2CCCC2)c1-c1nc2nc(c1C)OC[C@@H](CC(C)(C)C)N(Cc1ccc(N3CCOCC3)cn1)C(=O)c1cccc(c1)S(=O)(=O)N2` (atropisomer, axis not shown) [Compound 289], the EC50 is under 1000 nM and the “HBE Max Activity” value is “+++ (+++ is >600%)”.

In the case of `Cc1cccc(CC(C)C)c1-c1nc2nc(c1C)OC[C@@H](CC(C)(C)C)N(Cc1ccc(N3CCOCC3)cn1)C(=O)c1cccc(c1)S(=O)(=O)N2` (atropisomer, axis not shown) [Compound 297], the EC50 is under 1000 nM and the “HBE Max Activity” value is reported as “+++ (+++ is >600%)”.

With `Cc1c2nc(nc1-c1ccccc1C(C)(C)C)NS(=O)(=O)c1cccc(c1)C(=O)N(Cc1ccc(N3CCOCC3)cn1)[C@H](CC(C)(C)C)CO2` [Compound 181], the concentration for a half-maximal effect (EC50) is under 1000 nM and the “HBE Max Activity” value is recorded as “+++ (+++ is >600%)”.

As for `Cc1cccc(CC(C)C)c1-c1nc2nc(c1C)OC[C@@H](C(C)C)N(Cc1ncc(N3CCC(C)(C)C3)cn1)C(=O)c1cccc(c1)S(=O)(=O)N2` [Compound 240], the EC50 fell in the range of 1000 to 3000 nM and the “HBE Max Activity” value was “+++ (+++ is >600%)”.

Regarding `COCCN(C)c1cnc(CN2C(=O)c3cccc(c3)S(=O)(=O)Nc3nc(c(C)c(-c4c(C)cccc4CC4CCCCC4)n3)OC[C@H]2CC(C)(C)C)cn1` [Compound 278], the EC50 lay within 1000 to 3000 nM and the “HBE Max Activity” value is “+++ (+++ is >600%)”.

In the case of `Cc1cccc(C(C)C)c1-c1nc2nc(c1C)OC[C@@H](CC(C)(C)C)N(Cc1ccc(N3CCOCC3)cn1)C(=O)c1cccc(c1)S(=O)(=O)N2` (atropisomer, axis not shown) [Compound 299], the EC50 is under 1000 nM and the “HBE Max Activity” value is given as “+++ (+++ is >600%)”.

As for `Cc1cccc(C)c1-c1nc2nc(c1C)OC[C@@H](CC(C)C)N(Cc1ncc(OC(C)C)cn1)C(=O)c1cccc(c1)S(=O)(=O)N2` [Compound 193], the EC50 is under 1000 nM and the “HBE Max Activity” value is recorded as “+++ (+++ is >600%)”.

For the molecule `Cc1cccc(CC2CCCCC2)c1-c1nc2nc(c1C)OC[C@@H](CC(C)(C)C)N(Cc1ncc(OC(C)C)cn1)C(=O)c1cccc(c1)S(=O)(=O)N2` [Compound 234], the concentration giving a half-maximal response (EC50) is under 1000 nM and the “HBE Max Activity” value is given as “+++ (+++ is >600%)”.

Regarding `Cc1cccc(CC2CCCC2)c1-c1nc2nc(c1C)OC[C@@H](CC(C)(C)C)N(Cc1cccc(N(C)C(C)C)n1)C(=O)c1cccc(c1)S(=O)(=O)N2` (atropisomer, axis not shown) [Compound 273], the EC50 is under 1000 nM and the “HBE Max Activity” value is “+++ (+++ is >600%)”.

As for `Cc1cccc(C)c1-c1nc2nc(c1C)OC[C@@H](CC(C)(C)C)N(Cc1ncc(N3CCC(C)(C)C3)cn1)C(=O)c1cccc(c1)S(=O)(=O)N2` [Compound 191], the EC50 is under 1000 nM and the “HBE Max Activity” value was “+++ (+++ is >600%)”.

With `Cc1cccc(CC2CCCCC2)c1-c1nc2nc(c1C)OC[C@@H](CC(C)(C)C)N(Cc1ccc(C3CCCCC3)cn1)C(=O)c1cccc(c1)S(=O)(=O)N2` (atropisomer, axis not shown) [Compound 277], the EC50 was under 1000 nM and the “HBE Max Activity” value is given as “+++ (+++ is >600%)”.

With `Cc1cccc(CC2CCCCC2)c1-c1nc2nc(c1C)OC[C@@H](CC(C)(C)C)N(Cc1ncc(N3CCC(C)(C)C3)cn1)C(=O)c1cccc(c1)S(=O)(=O)N2` (atropisomer, axis not shown) [Compound 254], the half-maximal effective concentration (EC50) lay in the range of 1000 to 3000 nM and the “HBE Max Activity” value is listed as “+++ (+++ is >600%)”.

Consider `Cc1cccc(CC(C)C)c1-c1nc2nc(c1C)OC[C@@H](CC(C)(C)C)N(Cc1ncc(N3CCC(C)(C)C3)cn1)C(=O)c1cccc(c1)S(=O)(=O)N2` (atropisomer, axis not shown) [Compound 243], for which the EC50 was in the range of 1000 to 3000 nM and the “HBE Max Activity” value is listed as “+++ (+++ is >600%)”.

Regarding `Cc1cccc(CC2CCCCC2)c1-c1nc2nc(c1C)OC[C@@H](CC(C)(C)C)N(Cc1ncc(N3CCC(C)(C)CC3)cn1)C(=O)c1cccc(c1)S(=O)(=O)N2` (atropisomer, axis not shown) [Compound 260], the EC50 was under 1000 nM and the “HBE Max Activity” value is “+++ (+++ is >600%)”.

In the case of `Cc1cccc(CC(C)C)c1-c1nc2nc(c1C)OC[C@@H](CC(C)(C)C)N(Cc1ncc(N3CCOCC3)cn1)C(=O)c1cccc(c1)S(=O)(=O)N2` (atropisomer, axis not shown) [Compound 296], the EC50 is under 1000 nM and the “HBE Max Activity” value is given as “+++ (+++ is >600%)”.

Consider `Cc1cccc(CC(C)C)c1-c1nc2nc(c1C)OC[C@@H](CC(C)C)N(Cc1ncc(N3CCC(C)(C)C3)cn1)C(=O)c1cccc(c1)S(=O)(=O)N2` (atropisomer, axis not shown) [Compound 241], for which the concentration for a half-maximal effect (EC50) is under 1000 nM and the “HBE Max Activity” value is “+++ (+++ is >600%)”.

In the case of `Cc1cccc(CC(C)(C)C)c1-c1nc2nc(c1C)OC[C@@H](CC(C)(C)C)N(Cc1ncc(N3CCC(C)(C)C3)cn1)C(=O)c1cccc(c1)S(=O)(=O)N2` (single isomer, unassigned) [Compound 215], the EC50 is under 1000 nM and the “HBE Max Activity” value is listed as “+++ (+++ is >600%)”.

Consider `Cc1cccc(CC(C)C)c1-c1nc2nc(c1C)OC[C@@H](CC(C)(C)C)N(Cc1ncc(CC(C)C)cn1)C(=O)c1cccc(c1)S(=O)(=O)N2` (atropisomer, axis not shown) [Compound 264], for which the EC50 was under 1000 nM and the “HBE Max Activity” value is listed as “+++ (+++ is >600%)”.

Take `Cc1cccc(C)c1-c1nc2nc(c1C)OC[C@@H](CC(C)(C)C)N(c1cnn(C)c1Br)C(=O)c1cccc(c1)S(=O)(=O)N2` [Compound 56, (11R)-12-(5-Bromo-1-methyl-pyrazol-4-yl)-6-(2,6-dimethylphenyl)-11-(2,2-dimethylpropyl)-7-methyl-2,2-dioxo-9-oxa-2λ^6-thia-3,5,12,19-tetrazatricyclo[12.3.1.14,8]nonadeca-1(18),4(19),5,7,14,16-hexaen-13-one]: the EC50 is under 1000 nM and the “HBE Max Activity” value was “+++ (+++ is >600%)”.

Regarding `Cc1cccc(CC2CCCCC2)c1-c1nc2nc(c1C)OC[C@@H](CC(C)(C)C)N(Cc1ncc(N(C)C)cn1)C(=O)c1cccc(c1)S(=O)(=O)N2` (atropisomer, axis not shown) [Compound 304], the EC50 is under 1000 nM and the “HBE Max Activity” value was “+++ (+++ is >600%)”.

Still in this experiment, the particulars now being: with 1 μM Ivacaftor, 18-24 hours, 20% human serum, compared to known Vertex corrector with 18 μM Tezacaftor and 1 μM Ivacaftor, read-out: HBE Max activity (%).
As to `Cc1cccc(C)c1-c1nc2nc(c1F)OC[C@@H](CC(C)(C)C)N(Cc1ncc(N3CCC(C)(C)C3)cn1)C(=O)c1cccc(c1)S(=O)(=O)N2` [Compound 341], the Emax was over 60%.
